According to patent US10092648B2, “Selective glucagon-like-peptide-2 (GLP-2) analogues” (Zealand Pharma A/S, priority 2006, dated 2018):
Each block holds one molecule with its values, some of them ahead of it.

Assays:
hGLP-2 receptor [1] = biological target: T1, hGLP-2 receptor (Homo sapiens, UniProt O95838); experiment: In vitro screening for agonism on the GLP-2 receptor recombinantly expressed in BHK-21 cells (CRE-luciferase reporter); type: cell-based; conditions: BHK21 cells transiently transfected with GLP-2 receptor and CRE-luciferase; 10 fM to 10 nM; read-out: pEC50 (converted)
T1 construct: expressed in transfected cells; host or cells: BHK-21 (C13) cells, transient transfection with Lipofectamine 2000
T1 sequence (O95838 1-553): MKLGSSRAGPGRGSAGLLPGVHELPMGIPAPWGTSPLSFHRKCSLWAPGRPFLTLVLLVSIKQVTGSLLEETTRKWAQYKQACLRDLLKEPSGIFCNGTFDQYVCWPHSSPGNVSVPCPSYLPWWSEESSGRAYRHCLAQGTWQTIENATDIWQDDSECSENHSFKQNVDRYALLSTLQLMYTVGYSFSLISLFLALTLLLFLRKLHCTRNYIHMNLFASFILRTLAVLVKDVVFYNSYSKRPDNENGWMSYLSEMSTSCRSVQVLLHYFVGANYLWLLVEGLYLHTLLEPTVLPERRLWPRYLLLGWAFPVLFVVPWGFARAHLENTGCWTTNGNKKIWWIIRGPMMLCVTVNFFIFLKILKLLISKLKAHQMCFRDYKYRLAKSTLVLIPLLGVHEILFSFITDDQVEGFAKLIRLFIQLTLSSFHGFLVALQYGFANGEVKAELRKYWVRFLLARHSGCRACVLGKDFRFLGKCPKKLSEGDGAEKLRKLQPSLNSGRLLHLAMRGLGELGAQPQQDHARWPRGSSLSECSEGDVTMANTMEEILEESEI
Description: The screening was done using BHK21 cells transiently transfected with GLP-2 receptor and the CRE-luciferase reporter gene construct. Dose-response curves and EC50 values were determined using seven concentrations from 10 fM to 10 nM and triplicate points for each concentration. Control peptide was used on all test plates. BHK-21 cells are seeded in 10 cm TC-Petri dishes and grown to 70-80% confluency. Subsequently, medium is changed to serum-free transfection medium. DNA (7.5 μg hGLP-2 receptor vector and 7.5 μg CRE-luciferase vector) and Lipofectamine 2000 are diluted in OptiMEM, combined, and added to the cells after 20-30 min. Cells are incubated in the incubator at 37° C., 5% CO2 for 4 hr, trypsinized, and reseeded at 35,000 cells per well in 96-well plates. Cells are incubated overnight in full growth medium in order to allow expression of the transgenes. […] Baseline activity is controled with stimulation buffer alone. These solutions are pre-warmed to 37° C. for 30 min. Cells are rinsed with pre-warmed (37° C.) stimulation buffer, and incubated with 100 μl of the pre-warmed peptide dilutions and control for 5 hr at 37° C., 5% CO2. The LucLite enzyme substrate/lysis buffer is prepared shortly before the end of the incubation. 100 μl LucLite substrate are added to each well, and light emission is counted on a suitable counter (e.g. Wallac VictorII). EC50 values are derived from the raw data by fitting with a four parameter logistic equation (Microcal Origin 5.0 or GraphPad 4).

male C57BL mice = experiment: In vivo stimulation of intestinal growth, 800 nmol/kg (Example 10); conditions: 800 nmol/kg s.c. once daily for 3 days; for Sensitivity index Si/Colon / Sensitivity index Stomach/Co: relative to 1559; for Colon: colon mass relative to BW, % vs. [Gly2]GLP-2; for SI (% vs. [Gly2]GLP-2: small intestine mass relative to BW, [Gly2]GLP-2 = 100%
Description: Individual groups (n=6-10) of mice were given 800 nmol/kg of each compound, s.c, once daily for three consecutive days. For comparison purposes other groups of animals were given either an equimolar dose of [[…]]GLP-2 (ZP1559) or vehicle (phosphate buffered saline, pH 7.4) in the same dosing regimen Twenty-four hours after the last dose of compound had been given the mice were sacrificed and the small intestine (from the pylorus to the cecum) and the colon (intestine distal to cecum) was emptied and weighed. To correct for slight difference in body weight (BW), the organ mass of the small intestine (SI) and colon were expressed relative to BW. The non-selective reference compound [[…]]GLP-2 has been reported to stimulate gastrointestinal growth in both esophagus, stomach, small intestine and colon and to evaluate differences in growth pattern induced by compounds, the small intestine-colon sensitivity index of compound X was calculated as: […]

[2] = amino acid side-chain; defined by W. D. Stein 1967; cited from earlier work
hGLP-2 receptor [3] = biological target: T2, hGLP-2 receptor (human, UniProt O95838 1-553); experiment: cell-based or functional assay
T2 sequence (looked up): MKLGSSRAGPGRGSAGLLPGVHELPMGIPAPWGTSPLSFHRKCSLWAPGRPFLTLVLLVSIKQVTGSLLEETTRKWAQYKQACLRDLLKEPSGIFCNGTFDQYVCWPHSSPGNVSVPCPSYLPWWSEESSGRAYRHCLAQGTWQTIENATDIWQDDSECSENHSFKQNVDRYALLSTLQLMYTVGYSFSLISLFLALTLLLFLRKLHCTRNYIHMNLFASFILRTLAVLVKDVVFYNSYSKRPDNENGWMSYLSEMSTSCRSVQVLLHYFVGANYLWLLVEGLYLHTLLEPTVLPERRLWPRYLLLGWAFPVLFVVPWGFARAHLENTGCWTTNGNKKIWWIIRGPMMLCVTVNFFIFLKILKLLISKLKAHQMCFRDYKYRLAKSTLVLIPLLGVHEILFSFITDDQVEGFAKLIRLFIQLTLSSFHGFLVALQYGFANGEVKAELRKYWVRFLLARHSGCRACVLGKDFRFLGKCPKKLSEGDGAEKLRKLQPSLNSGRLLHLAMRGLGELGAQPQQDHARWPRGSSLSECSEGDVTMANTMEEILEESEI

Molecule: H-HGEGSFSDELETILEELAAEDFIEWLIETKITD-NH2 [ZP2266]
- EC50 (hGLP-2 receptor [1]): 558 pM
- Colon-BW, compared to 1559 in % (male C57BL mice): 100.6%
- Organ selectivity (FIG. 8, unselective compounds) (male C57BL mice): unselective for the small intestine, colon or stomach
- SI-BW, compared to 1559 in % (male C57BL mice): 95.3%
- Sto-BW, compared to 1559 in % (male C57BL mice): 93.6%
- Sensitivity index Si/Colon (male C57BL mice): 0.95
- Sensitivity index Stomach/Co (male C57BL mice): 0.93
- Colon (male C57BL mice): 101 ± 2%
- SI (% vs. [Gly2]GLP-2 (male C57BL mice): 95 ± 1%

Molecule: C[C@H](N)C(=O)O [Ala]
- HBP for the individual amino acids [2]: 0

Molecule: N[C@@H](CO)C(=O)O [Ser]
- HBP for the individual amino acids [2]: 2

Molecule: NCCCC[C@H](N)C(=O)O [Lys]
- HBP for the individual amino acids [2]: 2

Molecule: N[C@@H](Cc1ccccc1)C(=O)O [Phe]
- HBP for the individual amino acids [2]: 0

Molecule: H-HGEGSFSDELETILEELAAEDFIEWLIETKITD-NH2 [ZP2266]
- pEC50 (CRE-luciferase reporter, BHK-21 cells transiently transfected with hGLP-2 receptor) (hGLP-2 receptor [3]): 9.25

Molecule: H-HGEGSFSSELSTILDALAARDFIAWLIATKITDK-OH [ZP2242]
- pEC50 (CRE-luciferase reporter, BHK-21 cells transiently transfected with hGLP-2 receptor) (hGLP-2 receptor [3]): 12.4

Molecule: H-HGEGSFSDELATILEALAAADFIAWLIATKITD-NH2 [ZP2264]
- pEC50 (CRE-luciferase reporter, BHK-21 cells transiently transfected with hGLP-2 receptor) (hGLP-2 receptor [3]): 11.5

Molecule: H-HGEGSFSDELSTILESLAASDFISWLISTKITD-NH2 [ZP2263]
- pEC50 (CRE-luciferase reporter, BHK-21 cells transiently transfected with hGLP-2 receptor) (hGLP-2 receptor [3]): 10.8

Molecule: H-HGEGSFSDELSTILESLAAADFIAWLIATKITD-NH2 [ZP2267]
- pEC50 (CRE-luciferase reporter, BHK-21 cells transiently transfected with hGLP-2 receptor) (hGLP-2 receptor [3]): 10.9

Further lines, with some results ahead:

- EC50 (hGLP-2 receptor [1]): 13.5 pM
Molecule: H-HGEGSFSDELSTILESLAAADFIAWLIATKITD-NH2 [ZP2267]
- Colon-BW, compared to 1559 in % (male C57BL mice): 109.4%
- Organ selectivity (FIG. 8, unselective compounds) (male C57BL mice): unselective for the small intestine, colon or stomach
- SI-BW, compared to 1559 in % (male C57BL mice): 108.5%
- Sto-BW, compared to 1559 in % (male C57BL mice): 85.9%
- Sensitivity index Si/Colon (male C57BL mice): 0.99
- Sensitivity index Stomach/Co (male C57BL mice): 0.79
- Colon (male C57BL mice): 109 ± 4%
- SI (% vs. [Gly2]GLP-2 (male C57BL mice): 108 ± 2%

- pEC50 (CRE-luciferase reporter, BHK-21 cells transiently transfected with hGLP-2 receptor) (hGLP-2 receptor [3]): 10.2
Molecule: H-HGEGSFSDELNTILESLAASDFISWLISTKITD-NH2 [ZP2270]

- pEC50 (CRE-luciferase reporter, BHK-21 cells transiently transfected with hGLP-2 receptor) (hGLP-2 receptor [3]): 11.3
Molecule: H-HGEGSFSDELATILESLAAADFISWLIATKITD-NH2 [ZP2272]

- pEC50 (CRE-luciferase reporter, BHK-21 cells transiently transfected with hGLP-2 receptor) (hGLP-2 receptor [3]): 11.2
Molecule: H-HGEGSFSDELATILEALAASDFISWLISTKITD-NH2 [ZP2268]

- pEC50 (CRE-luciferase reporter, BHK-21 cells transiently transfected with hGLP-2 receptor) (hGLP-2 receptor [3]): 10
Molecule: H-HGEGSFSDELKTILESLAAADFIEWLIQTKITD-NH2 [ZP2269]
